{"source": "ChEMBL document CHEMBL3045813", "about": "“Study of the inactivation of copper, zinc superoxide dismutase by tetracycline analogues” (Med Chem Res, 2008)", "key": {"[1]": {"molecular_target": "Superoxide dismutase [Cu-Zn] (Homo sapiens) (UniProt P00441)", "sequence (P00441 whole entry)": "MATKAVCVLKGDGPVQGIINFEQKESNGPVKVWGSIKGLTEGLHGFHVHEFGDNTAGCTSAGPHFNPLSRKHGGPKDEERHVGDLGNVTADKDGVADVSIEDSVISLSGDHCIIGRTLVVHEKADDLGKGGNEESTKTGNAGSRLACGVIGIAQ", "experiment": "Binding affinity to Superoxide dismutase [Cu-Zn] (unknown origin) after 10 min at 37 degC by Stern-Volmer plot analysis"}, "[2]": {"molecular_target": "Superoxide dismutase [Cu-Zn] (Homo sapiens) (UniProt P00441)", "experiment": "Binding affinity to Superoxide dismutase [Cu-Zn] (unknown origin) after 10 min at 20 degC by Stern-Volmer plot analysis"}, "[3]": {"molecular_target": "Superoxide dismutase [Cu-Zn] (Homo sapiens) (UniProt P00441)", "experiment": "Binding affinity to Superoxide dismutase [Cu-Zn] (unknown origin) at 3.86 10^-5 mol/l after 10 min by fluorometric analysis"}, "[4]": {"molecular_target": "Superoxide dismutase [Cu-Zn] (Homo sapiens) (UniProt P00441)", "experiment": "Binding affinity to Superoxide dismutase [Cu-Zn] (unknown origin) at 3.86 10^-5 mol/l after 10 min by UV-Vis spectrophotometric analysis"}, "[5]": {"molecular_target": "Superoxide dismutase [Cu-Zn] (Homo sapiens) (UniProt P00441)", "experiment": "Binding affinity to Superoxide dismutase [Cu-Zn] (unknown origin) after 10 min at 30 degC by Stern-Volmer plot analysis"}, "Oryctolagus cuniculus [6]": {"species": "Oryctolagus cuniculus", "experiment": "Inactivation of New Zealand white Oryctolagus cuniculus (rabbit) Superoxide dismutase [Cu-Zn] at 28.8 mg QD for 7 days measured up to 7 days by pyrogallol-oxidation method", "type": "functional, organism-based"}, "Oryctolagus cuniculus [7]": {"species": "Oryctolagus cuniculus", "experiment": "Inactivation of New Zealand white Oryctolagus cuniculus (rabbit) Superoxide dismutase [Cu-Zn] at 28.8 mg QD for 7 days measured after 7 days by pyrogallol-oxidation method", "type": "functional, organism-based"}}, "note": "The source made the active and inactive calls. No cut-off for these calls is given here."}
{"smiles": "CN(C)[C@@H]1C(O)=C(C(N)=O)C(=O)[C@@]2(O)C(O)=C3C(=O)c4c(O)cccc4[C@@](C)(O)[C@H]3[C@H](O)[C@@H]12", "values": [{"measurement": "K", "setting": "[1]", "value": 3.62, "unit": "×10⁴ L/mol"}, {"measurement": "Kq", "setting": "[1]", "value": 3.96, "unit": "×10¹² L/mol/s"}, {"measurement": "K", "setting": "[2]", "value": 1.44, "unit": "×10⁵ L/mol"}, {"measurement": "Kq", "setting": "[2]", "value": 4.37, "unit": "×10¹² L/mol/s"}, {"measurement": "Activity", "setting": "[3]", "value": "Active"}, {"measurement": "Activity", "setting": "[4]", "value": "Active"}, {"measurement": "K", "setting": "[5]", "value": 8.93, "unit": "×10⁴ L/mol"}, {"measurement": "Kq", "setting": "[5]", "value": 4.22, "unit": "×10¹² L/mol/s"}]}
{"smiles": "CN(C)[C@@H]1C(O)=C(C(N)=O)C(=O)[C@@]2(O)C(O)=C3C(=O)c4c(O)cccc4[C@@](C)(O)[C@H]3C[C@@H]12", "values": [{"measurement": "Kq", "setting": "[1]", "value": 5.25, "unit": "×10¹² L/mol/s"}, {"measurement": "Kq", "setting": "[2]", "value": 5.97, "unit": "×10¹² L/mol/s"}, {"measurement": "Activity", "setting": "Oryctolagus cuniculus [6]", "value": "Active"}, {"measurement": "Activity", "setting": "[3]", "value": "Active"}, {"measurement": "Activity", "setting": "Oryctolagus cuniculus [7]", "value": "inactive"}, {"measurement": "Activity", "setting": "[4]", "value": "Active"}, {"measurement": "Kq", "setting": "[5]", "value": 5.3, "unit": "×10¹² L/mol/s"}]}
{"smiles": "C[C@H]1c2cccc(O)c2C(=O)C2=C(O)[C@]3(O)C(=O)C(C(N)=O)=C(O)[C@@H](N(C)C)[C@@H]3[C@@H](O)[C@@H]21", "values": [{"measurement": "K", "setting": "[1]", "value": 1.34, "unit": "×10⁶ L/mol"}, {"measurement": "Kq", "setting": "[1]", "value": 6.42, "unit": "×10¹² L/mol/s"}, {"measurement": "K", "setting": "[2]", "value": 6.73, "unit": "×10⁷ L/mol"}, {"measurement": "Kq", "setting": "[2]", "value": 1.01, "unit": "×10¹³ L/mol/s"}, {"measurement": "Activity", "setting": "[3]", "value": "Active"}, {"measurement": "Activity", "setting": "[4]", "value": "Active"}, {"measurement": "K", "setting": "[5]", "value": 7.9, "unit": "×10⁶ L/mol"}, {"measurement": "Kq", "setting": "[5]", "value": 7.73, "unit": "×10¹² L/mol/s"}]}
